The numbers were not newly measured in patent US20250312497A1, “METHOD OF TREATING PROSTATE CANCER” (Novartis AG, priority 2022, published 2025), which cites them from elsewhere.

The subject of data set [1] is docetaxel progressing metastatic castration-resistant prostate cancer. Conditions: randomized, 200 patients; P<0.0001; cited from earlier work.
The test system of another data set is mCRPC. To be noted: control arm; prior docetaxel and abiraterone acetate and/or enzalutamide; cited from earlier work.

As to `CO[C@H]1C(=O)[C@]2(C)[C@@H](OC)C[C@H]3OC[C@@]3(OC(C)=O)[C@H]2[C@H](OC(=O)c2ccccc2)[C@]2(O)C[C@H](OC(=O)[C@H](O)[C@@H](NC(=O)OC(C)(C)C)c3ccccc3)C(C)=C1C2(C)C` [cabazitaxel], the “proportion of patients with PSA decline >=50%” value in data set [1] is on record as 37%.

For the compound `C[C@]12C=CC(=O)C=C1CC[C@@H]1[C@@H]2C(=O)C[C@@]2(C)[C@H]1CC[C@]2(O)C(=O)CO` [prednisone], the median overall survival with mCRPC was 9.8 months.
